Like-named read-outs stand apart in the source and are kept apart here.
How the values were obtained:
[1] = system: 10T1/2; experiment: Cell proliferation (cell number); format: cell-based, mouse; conditions: treated for four days
Experimental: The adherent cells were detached with trypsin/EDTA and the cell number determined using a hemocytometer. Data points indicate the mean ± S.D. of duplicates from two independent experiments. The cell lines were obtained from the American Type Culture Collection and maintained in RPMI 1640 (HL-60) or Dulbecco's Modified Eagle's Medium (10T1/2) supplemented with 10% heat inactivated fetal calf serum (Gibco Laboratories), 2 mM L-Glutamine, and antibiotics.

[2] = system: premalignant 10T1/2 cells; experiment: cells
Experimental: C. Quantitation of adipocytosis. Lipids stained with Oil-Red O were extracted with butanol, and the optical density at 510 nm determined.
Lower: Quantitation of adipocytosis. Cells were fixed with 37% formaldehyde and stained with Oil-Red O. The stained intracellular lipid was extracted with butanol, and the optical density was determined using a Titertek Multiskan MC, manufactured by Flow Laboratories, at a wavelength 510 nm.

[3] = system: myc; experiment: Northern blot analysis of myc mRNA in HL-60; format: cell-based, human; conditions: HL-60, NaPA 0.8 mg/ml
Experimental: Cytoplasmic RNA (20 µg/lane) was subjected to Northern blot analysis using ^32P-labeled specific DNA probes. Ethidium bromide-stained […] indicates the relative amounts of total RNA in each lane. Figure A. Induction of a P2 expression in 10T1/2 cells. […] Figure B. Kinetics of myc inhibition and HLA-A induction in HL-60. […] Figure C. Dose-dependent and specificity of effect.
In HL-60, cell transformation has been linked to myc amplification and overexpression, and differentiation would typically require down regulation of myc expression. [Collins, S.J. The HL-60 promyelocytic leukemia cell line: Proliferation, differentiation, and cellular oncogene expression. Blood. 70:1233-1244 (1987)]. […] The 32P-labeled probes used were myc 3rd exon (Oncor) and HLA-A3 Hind III/EcoRI fragment. […] This occurred within 4 hours of treatment, preceding the phenotypic changes detectable by 48 hrs, approximately two cell cycles, after treatment. Similar kinetics of myc inhibition have been reported for other differentiation agents such as dimethyl sulfoxide, sodium butyrate, bromodeoxyuridine, retinoids, and 1,25-dihydroxyvitamin D3. […] It is believed that this may enhance the immunogenicity of tumors in vivo.

[4] = system: premalignant 4C8 and 10T1/2 cells; experiment: Prevention of 5-AzadC-induced malignant conversion in culture; format: cell-based; conditions: NaPA 0.8-1.6 mg/ml, cells exposed to 5-AzadC
From the text: It is known that the treatment of premalignant 4C8 and 10T1/2 cells with carcinogens such as 5-AzadC produces malignant conversion of the respective cells. When 4C8 [Remold: et al., Cancer Research, 51:1-7 (1990)] and 10T1/2 cells were exposed to 5-AzadC, malignant conversion was evident in two days and two weeks, respectively.

[5] = system: DU145; experiment: Tumor cell growth / proliferation; format: cell-based; conditions: Homo sapiens
Experimental: (§1) Studies of depth were performed with two androgenindependent human prostate adenocarcinoma cell lines, PC3 and DU145, established from bone and brain metastases, respectively.

[6] = system: Prostate Adenocarcinoma PC3; experiment: Tumor cell growth / proliferation; format: cell-based; conditions: Homo sapiens
Experimental: as §1

[7] = system: primary human skin FS4 fibroblasts; experiment: Growth of normal cells; format: cell-based; conditions: Fibroblast, read-out: concentration needed to cause a significant inhibition of growth
[8] = system: Prostatic PC3 Cells; experiment: Tumorigenicity of pretreated cells in nude mice; format: in vivo, athymic nude mice; conditions: cells pretreated 1 week at 0.8 mg/ml, 8 weeks later
From the text: PC3 cells were pretreated for 1 week in culture and then injected (2 x 10^5 cells/animal) s.c. into 4-5 week-old female athymic nude mice. […] The data in Table 4 are a summary of two independent experiments.

[9] = system: collagenase type IV; experiment: Northern blot analysis in PC3 cells; format: cell-based, human; conditions: NaPA treated PC3 cells
[10] = system: HLA-A mRNA; experiment: Northern blot analysis in PC3 cells; format: cell-based, human; conditions: NaPA treated PC3 cells
[11] = system: Prostatic Ca LaNCoP; experiment: Tumor cell growth / proliferation; format: cell-based; conditions: read-out: % Inhibition by NaPA 0.8 mg/ml
[12] = system: Astrocytoma U343; experiment: Tumor cell growth / proliferation; format: cell-based
[13] = system: Fibrosarcoma V7T; experiment: Tumor cell growth / proliferation; format: cell-based
From the text: (§2) • # 7-10 For effective responses, the tumors may require much higher drug concentrations if used alone.
(§3) A differential effect was seen also in ras-transformed fibrosarcoma V7T, when compared to the parental non-tumorigenic N1H3T3 cells.

[14] = system: Osteosarcoma HOS; experiment: Tumor cell growth / proliferation; format: cell-based; conditions: read-out: % Inhibition by NaPA 0.8 mg/ml
From the text: as §2, §3

[15] = system: Osteosarcoma KRIB; experiment: Tumor cell growth / proliferation; format: cell-based
From the text: as §2, §3

[16] = system: lung adenocarcinoma H596; experiment: Tumor cell growth / proliferation; format: cell-based; conditions: Homo sapiens, NCI-H596; read-out: concentration causing about 50% inhibition of growth
[17] = system: intracellular glutathione; experiment: Induction of intracellular glutathione; format: cell-based; conditions: normal or tumor cells, depending on growth conditions
From the text: It is known that intracellular glutathione plays a major role in detoxification and repair of cellular injury by chemical and physical carcinogens. […] Nontoxic agents that can induce glutathione are highly desirable since these are likely to protect cells from damage by a variety of chemical carcinogens and ionizing radiation.

[18] = cited from earlier work
[19] = system: Malignant Melanoma A375; experiment: Tumor cell growth / proliferation
[20] = system: Erythroleukemia K562 cells; experiment: Induction of hemoglobin synthesis (benzidine staining, protein quantitation); conditions: for Benzidine Positive Cells: seven days
[21] = read-out: % Inhibition by NaPA 0.8 mg/ml, 0.8 mg/ml
[22] = read-out: concentration causing about 50% inhibition of growth

O=C([O-])Cc1ccccc1.[Na+] [NaPA, sodium phenylacetate]
cell proliferation [1]: dose dependent inhibition of cell proliferation | cytotoxic effect ([2]; 800 µg/ml): totally free of cytotoxic effect | Differentiation at 1 mM ([2]; 1 mM, sodium salts): 65% | adipocyte conversion, share of the cell population ([2]; 10T1/2 model): over 80% | DC50 ([2]; Mus musculus, Adipocyte, read-out: DC50, concentration of compound causing 50% differentiation): 700 µM | time to decline in the amounts of myc mRNA [3]: ≤ 4 h | appearance of the malignant phenotype (cell morphology, contact inhibition, anchorage dependent growth) [4]: prevented the appearance of the malignant phenotype | IC50 ([5]; DU-145, growth arrest, read-out: IC50): 600 to 800 µg/mL | inhibition at 800 µg/mL ([5]; DU-145, read-out: % Inhibition by NaPA 0.8 mg/ml, 0.8 mg/ml): ≥ 50% | IC50 ([5]; DU-145, read-out: concentration causing about 50% inhibition of growth): 400 to 800 µg/mL | IC50 [6]: 600 to 800 µg/mL | viability at 800 µg/mL ([6]; PC-3): > 95% | activity at 800 µg/mL ([6]; PC-3, read-out: Growth): 59.6% | IC50 ([6]; PC-3, read-out: concentration causing about 50% inhibition of growth): 400 to 800 µg/mL | inhibition at 800 µg/mL ([6]; read-out: % Inhibition by NaPA 0.8 mg/ml): ≥ 50% | minimal effective concentration [7]: 2000 to 4000 µg/mL | Incidence ([8]; 2 x 10^5 cells/animal s.c.): 1/7 | Diameter [8]: 2 mm ± S.D. | Weight [8]: 50 mg | expression of collagenase type IV [9]: inhibited the expression of collagenase type IV | level of HLA-A mRNA [10]: an increase in the level of HLA-A mRNA | inhibition at 800 µg/mL [11]: > 50% | IC50 ([12]; astrocytoma 343, read-out: concentration causing about 50% inhibition of growth): 400 to 800 µg/mL | inhibition at 800 µg/mL ([12]; read-out: % Inhibition by NaPA 0.8 mg/ml, U343, 0.8 mg/ml): ≥ 50% | inhibition at 800 µg/mL [13, 21]: ≤ 30% | IC50 [13, 22]: 1000 to 1500 µg/mL | inhibition at 800 µg/mL [14]: < 20% | inhibition at 800 µg/mL [15, 21]: ≤ 30% | IC50 [15, 22]: 1000 to 1500 µg/mL | IC50 [16]: 400 to 800 µg/mL | induction of the activity of intracellular glutathione [17]: 2-10 fold | plasma levels ([18]; children with urea cycle disorders, infusion 300-500 mg/kg/day): approximately 800 µg/ml | plasma levels ([18]; humans, intravenous infusion 250-500 mg/kg/day): 600 to 800 µg/mL | concentration causing about 50% inhibition of growth ([19]; A375): 0.4 to 0.8 mg/mL | % Inhibition by NaPA 0.8 mg/ml ([19]; A375, 0.8 mg/ml, within one week of treatment): ≥ 70% | Growth ([19]; NaPA 400 µg/ml): 63.3 % of control | Viability ([19]; NaPA 400 µg/ml): > 95% | hemoglobin accumulation, increase over control cells ([20]; 0.8 and 1.6 mg/ml): 4-9 fold | Benzidine Positive Cells ([20]; NaPA 0.8 mg/ml): 6.0% | Benzidine Positive Cells ([20]; NaPA 1.6 mg/ml): 17.1%

From patent publication EP0567613B1, “COMPOSITIONS FOR THERAPY AND PREVENTION OF CANCER” (The Government of the United States of America, as …, priority 1991, dated 1993)
